Test results published in ChEMBL document CHEMBL2203178, “Design and one-pot synthesis of new 7-acyl camptothecin derivatives as potent cytotoxic agents” (Bioorg Med Chem Lett, 2012).

How the values were obtained:
Type in all cases: functional, cell-based
DU-145 = assay: Cytotoxicity against human DU145 cells by SRB assay
A549 = assay: Cytotoxicity against human A549 cells by SRB assay
[1] = Cytotoxicity against human KBVIN cells by SRB assay
KB = assay: Cytotoxicity against human KB cells by SRB assay

CC[C@@]1(O)C(=O)OCc2c1cc1n(c2=O)Cc2c-1nc1ccccc1c2C(=O)c1cc(OC)c(OC)c(OC)c1 showed an IC50 (DU-145) of 2110 nM, an IC50 (A549) of 1000 nM and an IC50 [1] of 1170 nM. The IC50 (KB) was 3140 nM.

For CC[C@@]1(O)C(=O)OCc2c1cc1n(c2=O)Cc2c-1nc1ccccc1c2C(=O)c1cc(OC)ccc1OC, the IC50 (DU-145) was 2060 nM, the IC50 (A549) was 1010 nM and the IC50 [1] was 2250 nM. The IC50 (KB) was 2920 nM.

CC[C@@]1(O)C(=O)OCc2c1cc1n(c2=O)Cc2c-1nc1ccccc1c2C(=O)c1ccc(C)c(O)c1 showed an IC50 (DU-145) of 1540 nM, an IC50 (A549) of 1020 nM and an IC50 [1] of 1140 nM. The IC50 (KB) was 1730 nM.

Work on CC[C@@]1(O)C(=O)OCc2c1cc1n(c2=O)Cc2c-1nc1ccccc1c2C(=O)c1ccc(C)c(C)c1 yielded an IC50 (DU-145) of 1700 nM, an IC50 (A549) of 1000 nM and an IC50 [1] of 4620 nM. It also gave an IC50 (KB) of 2490 nM.

In the case of CC[C@@]1(O)C(=O)OCc2c1cc1n(c2=O)Cc2c-1nc1ccccc1c2C(=O)c1ccc(O)cc1, the IC50 (DU-145) is reported as 2990 nM, the IC50 (A549) is reported as 2510 nM and the IC50 [1] is reported as 1790 nM. For the same compound, the IC50 (KB) was 12500 nM.

CC[C@@]1(O)C(=O)OCc2c1cc1n(c2=O)Cc2c-1nc1ccccc1c2C(=O)c1ccc2c(c1)OCO2 gave an IC50 (DU-145) of 2600 nM, an IC50 (A549) of 1130 nM and an IC50 [1] of 1770 nM. For the same compound, the IC50 (KB) was 11800 nM.

Work on CC[C@@]1(O)C(=O)OCc2c1cc1n(c2=O)Cc2c-1nc1ccccc1c2C(=O)c1ccc(OC)cc1 yielded an IC50 (DU-145) of 1610 nM, an IC50 (A549) of 911 nM and an IC50 [1] of 3140 nM. For the same compound, the IC50 (KB) was 4780 nM.

For CC[C@@]1(O)C(=O)OCc2c1cc1n(c2=O)Cc2c-1nc1ccccc1c2C(=O)c1ccc(Cl)cc1, the IC50 (DU-145) was 1680 nM, the IC50 (A549) was 949 nM and the IC50 [1] was 1120 nM. For the same compound, the IC50 (KB) was 3070 nM.

In the case of CC[C@@]1(O)C(=O)OCc2c1cc1n(c2=O)Cc2c-1nc1ccccc1c2C(=O)c1ccccc1, the IC50 (DU-145) is reported as 11000 nM, the IC50 (A549) is reported as 11000 nM and the IC50 [1] is reported as 11900 nM. For the same compound, the IC50 (KB) was 13300 nM.

In the case of CC[C@@]1(O)C(=O)OCc2c1cc1n(c2=O)Cc2c-1nc1ccccc1c2C(=O)c1ccoc1, the IC50 (DU-145) is reported as 2010 nM, the IC50 (A549) is reported as 2020 nM and the IC50 [1] is reported as 1800 nM. It also gave an IC50 (KB) of 2730 nM.

For CCC(=O)c1c2c(nc3ccccc13)-c1cc3c(c(=O)n1C2)COC(=O)[C@]3(O)CC, the IC50 (DU-145) was 89.8 nM, the IC50 (A549) was 31.7 nM and the IC50 [1] was 28.7 nM. It also gave an IC50 (KB) of 59.2 nM.

For CC[C@@]1(O)C(=O)OCc2c1cc1n(c2=O)Cc2c-1nc1ccccc1c2C(C)=O, the IC50 (DU-145) was 40.2 nM, the IC50 (A549) was 15.4 nM and the IC50 [1] was 131 nM. It also gave an IC50 (KB) of 23.3 nM.

CC[C@@]1(O)C(=O)OCc2c1cc1n(c2=O)Cc2cc3ccccc3nc2-1 [CAMPTOTHECIN] gave an IC50 (DU-145) of 28.7 nM.

CCc1c2c(nc3ccc(OC(=O)N4CCC(N5CCCCC5)CC4)cc13)-c1cc3c(c(=O)n1C2)COC(=O)[C@]3(O)CC [IRINOTECAN] gave an IC50 (DU-145) of 9300 nM and an IC50 [1] greater than 20000 nM.
